The source of these data is PMC12047801, “Disrupting the OTUD4-USP7 deubiquitinase complex to suppress herpesvirus replication: a novel antiviral strategy” (PLOS Pathogens, 2025).

Assay [1] concerns KSHV lytic reactivation in SLK.iBAC-GFP cells. In kind it is cell-based. The following applies: SLK.iBAC-GFP cells, Dox + sodium butyrate; mean ± s.d. of N = 3. As for the experimental part:
(A) Graphical illustration showing the rationale underlying our peptide design. (B) Surface Plasmon Resonance (SPR) analysis assessing the interaction of the USP7-TRAF domain with the designed peptides p2 and p8. (C) SLK.iBAC-GFP cells were induced with doxycycline (Dox, 1 μg/mL) and sodium butyrate (0.5 mM) in the presence of the Tat fusion peptides (100 μM). All the peptides were fused to an N-terminal Tat47-57 peptide ([…]) via a flexible GG linker. The supernatants containing infectious virions were collected 48 h post-induction and used to infect HEK293T cells. KSHV infectious units were calculated based on the percentage of GFP-positive cells determined by flow cytometry. Data are mean ± s.d. of N = 3 independent biological replicates. (D) SLK.iBAC-GFP cells were induced with doxycycline (Dox, 1 μg/mL) and sodium butyrate (0.5 mM) in the presence of increasing amount of p8 (0, 10, 50, 100 μM). KSHV infectious units were determined 48 h post-induction. Data are mean ± s.d. of N = 3 independent biological replicates. […] Data are mean ± s.d. of N = 3 independent biological replicates. […] Cell viability was assessed by measuring ATP levels 48 h post-induction. Data are mean ± s.d. of N = 3 independent biological replicates.
Peptides p1 to p12 (S1A Fig) were synthesized by Sangon Biotech (Shanghai, China) with 95% purity. The Tat-fused peptides in Fig 1C consisted of the corresponding peptides conjugated to the Tat47-57 peptide ([…]) and two glycine linker residues (QYAOBIO, Suzhou, China). The peptides p8-DRI (nssqsasqnvpprrrqrrkkrGy) and p2-DRI (iesndedavepprrrqrrkkrGy) were synthesized using D-amino acids in a retro-reversed sequence with 95% purity (QYAOBIO, Suzhou, China). The peptide p8-m ([…]) was synthesized with 95% purity (QYAOBIO, Suzhou, China). All the peptides were acetylated at the N-terminus and amidated at the C-terminus to mimic the native peptide structure. The peptides were dissolved in PBS to prepare 1 mM stock solutions for in vitro experiments and 5 mg/ml stock solutions for in vivo experiments.
SLK.iBAC-GFP cells were treated with Dox (1 μg/ml) and sodium butyrate (0.5 mM) to induce lytic reactivation in the presence of indicated peptides (100 μM). The supernatants were collected at the specified time points and used to infect HEK293T cells at appropriate dilutions. The infected cells were collected, fixed, and analyzed by flow cytometry 24 h post-infection. FlowJo 10.0 software was used to analyze the data, and KSHV infectious units were quantified based on the percentage of GFP-positive cells.

The test system of assay [2] is MHV68 in C57BL/6 mice. Format: in vivo. To be noted: Fig 5E, 5 mg/kg, 5 days post-infection. As for the experimental part:
(§1) Fig 5 P8-DRI restricts MHV68 Infection in vivo. (A-B) MLF cells were infected with MHV68 (MOI, 0.01) and treated with the indicated peptides (100 µM). Viral titer was determined by plaque assays 48 h post-infection (A). Viral gene expression was assessed by RT-qPCR (B). Data are mean ± s.d. of N = 3 independent biological replicates. […] Data are mean ± s.d. of N = 3 independent biological replicates. (D-E) C57BL/6 mice were intranasally inoculated with MHV68 (4000 PFU) and administrated with p8-DRI (5 mg/kg of body weight) or vehicle control (n = 6 per group). Viral loads in lung tissues were quantified at 5 days post-infection (D). Viral gene expression in lung tissues was measured by RT-qPCR at 5 days post-infection (E). Data are mean ± s.d. of N = 6 independent biological replicates. (F) H&E staining of lung tissue sections from MHV68-infected mice treated with p8-DRI or vehicle 5 days post-infection. Scale bars, 500 µm (left) and 100 µm (right). […] Viral titers in lung tissues were determined at 5 days post-infection (G). Viral gene expression in lung tissues was assessed by RT-qPCR (H). […] (I) H&E staining of lung tissue sections from MHV68-infected Otud4^^fl/fl Cre-ERT2^-/- and Otud4^^fl/fl Cre-ERT2^+/- mice treated with p8-DRI or vehicle control, analyzed at 5 days post-infection. […]

In assay [3] the test system is lung pathology in MHV68-infected Otud4fl/fl Cre-ERT2 mice. In kind it is in vivo. To be noted: for Histological score of lungs: Fig. 5I.
The subject of assay [4] is MHV68 in Otud4fl/fl Cre-ERT2 mice. In kind it is in vivo. To be noted: 5 mg/kg.
The test system of assay [5] is MHV68 in C57BL/6 mice. The assay is described as follows: Viral loads/titers in lungs of MHV68-infected C57BL/6 mice. Format: in vivo. To be noted: 5 days post-infection.
Assay [6] addresses T1, USP7-TRAF domain (Homo sapiens, UniProt Q93009).
T1 construct: The TRAF domain of human and murine USP7 (1-208 aa) was subcloned into pGEX-6p-1; GST (N); made in house; host or cells: E. coli BL21 (DE3)
Put plainly: Surface plasmon resonance (SPR) analysis of peptide binding to USP7-TRAF. The following applies: N = 3 (S5H Fig).

The subject of assay [7] is lung inflammation in MHV68-infected C57BL/6 mice. Format: in vivo. The following applies: Fig 5F, 5 mg/kg, 5 days post-infection, vs vehicle. As for the experimental part: as §1, with “replicates.” for “replicates. (F) H&E staining of lung tissue sections from MHV68-infected mice treated with p8-DRI or vehicle 5 days post-infection. Scale bars, 500 µm (left) and 100 µm (right).”
Mouse lung tissue samples were fixed in 10% formalin solution (Sigma) overnight. […] The tissue sections were stained using standard H&E staining protocols and analyzed microscopically.

Assay [8] deals with KSHV lytic replication. The following applies: nucleoside analogue; cited from earlier work. The source says:
In KSHV-associated cancers, such as Kaposi’s sarcoma (KS), tumor cells predominantly display latent viral infection, while spontaneous reactivation takes place in only 1–3% of infected cells. […] Despite the low percentage of lytic cells, lytic replication plays a critical role in KS pathogenesis. Firstly, the production and release of infectious KSHV particles sustain the latently infected cell population by compensating for episomal loss duri ... || KSHV is the etiological agent of Kaposi’s sarcoma (KS) and primary effusion lymphoma (PEL), and contributes to other malignancies such as multicentric Castleman’s disease (MCD). […] Therefore, KSHV antiviral treatments, including those aimed at inhibiting lytic replication, are actively being developed. […] MMV1645152, identified from the Medicines for Malaria Venture (MMV) Pandemi ...

The subject of assay [9] is Kaposi's sarcoma (KS) progression. To be noted: cited from earlier work.

Where “and” joins values, the source holds several entries; their conditions need not be identical. Identical values can stand only once. Like-named read-outs stand apart in the source and are kept apart here. Where a SMILES comes first, the peptide text is derived from it.

By IC50 is commonly meant the concentration that gives 50% inhibition.

T1 sequence (Q93009 1-208): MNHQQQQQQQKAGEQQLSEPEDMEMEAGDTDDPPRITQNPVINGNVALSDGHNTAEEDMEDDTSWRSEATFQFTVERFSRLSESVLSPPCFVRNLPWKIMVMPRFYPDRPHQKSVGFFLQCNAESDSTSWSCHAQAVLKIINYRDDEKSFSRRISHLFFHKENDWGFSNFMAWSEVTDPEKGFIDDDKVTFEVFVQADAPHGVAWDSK

Regarding `CC(=O)N[C@H](CC(N)=O)C(=O)N[C@H](CO)C(=O)N[C@H](CO)C(=O)N[C@H](CCC(N)=O)C(=O)N[C@H](CO)C(=O)N[C@H](C)C(=O)N[C@H](CO)C(=O)N[C@H](CCC(N)=O)C(=O)N[C@H](CC(N)=O)C(=O)N[C@@H](C(=O)N1CCC[C@@H]1C(=O)N1CCC[C@@H]1C(=O)N[C@H](CCCNC(=N)N)C(=O)N[C@H](CCCNC(=N)N)C(=O)N[C@H](CCCNC(=N)N)C(=O)N[C@H](CCC(N)=O)C(=O)N[C@H](CCCNC(=N)N)C(=O)N[C@H](CCCNC(=N)N)C(=O)N[C@H](CCCCN)C(=O)N[C@H](CCCCN)C(=O)N[C@H](CCCNC(=N)N)C(=O)NCC(=O)N[C@H](Cc1ccc(O)cc1)C(N)=O)C(C)C` [p8-DRI] (HELM PEPTIDE1{[ac].[dN].[dS].[dS].[dQ].[dS].[dA].[dS].[dQ].[dN].[dV].[dP].[dP].[dR].[dR].[dR].[dQ].[dR].[dR].[dK].[dK].[dR].G.[dY].[am]}$$$$V2.0), the IC50 in assay [1] worked out at 9.23 ± 1.29 µM. Further, the “MHV68 viral gene transcription (ORF50, ORF9, ORF25) in lungs (in words)” value in [2] is recorded as “significantly reduced”. Besides, the “Histological score of lungs” value in assay [3] (OTUD4 KO mice, replicate 1) was 1; in [3] (OTUD4 KO mice, replicate 2) it was 1; in [3] (OTUD4 KO mice, replicate 3), 1; in assay [3] (OTUD4 KO mice, replicate 4), 2; in assay [3] (OTUD4 KO mice, replicate 5), 3; in assay [3] (OTUD4 WT mice, replicate 1) it was 1. The “Histological score of lungs” value is listed as 1 in assay [3] (OTUD4 WT mice, replicate 2); 1 in [3] (OTUD4 WT mice, replicate 3); 2 in assay [3] (OTUD4 WT mice, replicate 4); 3 in assay [3] (OTUD4 WT mice, replicate 5). Moreover, the “Viral pathology in OTUD4-replete mice (in words)” value in assay [3] (Otud4fl/fl Cre-ERT2-/-, 5 mg/kg, vs vehicle) is “reduced viral pathology”. Further, the “Antiviral effect in OTUD4-deficient mice (in words)” value in assay [4] (Figs 5G-5I, Otud4fl/fl Cre-ERT2+/- + tamoxifen) was “abolished in OTUD4-deficient mice”. For the same compound, the “Viral titers in lungs of OTUD4-replete mice (in words)” value in [4] (Otud4fl/fl Cre-ERT2-/-, vs vehicle) is recorded as “lower viral titers in lung tissues”. Besides, the “Viral titers in lung tissues (in words)” value in assay [5] (Fig 5D, 5 mg/kg, vs vehicle) is reported as “lower viral titers in lung tissues”. Besides, the “Viral loads in lung tissues” value in assay [5] (Fig. 5D, 5 mg/kg p8-DRI, MHV68 4000 PFU intranasal, single animals, one line per mouse (n = 6)) is 12.8424 and 18.8481 and 2.1041 and 7.7972 and 13.617 and 0.6389. Also, the “Binding affinity for USP7-TRAF relative to p8 (in words)” value in [6] is listed as “remained comparable to that of p8”. In addition, in assay [7], the “Lung inflammation and immune cell infiltration (in words)” value was “less inflammation and immune cell infiltration in the lungs”.

Turning to `Nc1nc(O)c2ncn(COC(CO)CO)c2n1` [Ganciclovir], the “Inhibition of KSHV lytic replication (in words)” value in assay [8] is on record as “inhibits KSHV lytic replication”. In addition, the “Prevention of KS progression (in words)” value in assay [9] is reported as “remarkable efficacy in randomized clinical trials for preventing KS progression”.
